Assays:
[1] = compound: CCCCOc1c(C(=O)c2c(F)cc(C)cc2F)c[nH]c2nncc1-2
Luminespib/NVP-AUY922 = compound: CCNC(=O)c1noc(-c2cc(C(C)C)c(O)cc2O)c1-c1ccc(CN2CCOCC2)cc1 [Luminespib/NVP-AUY922]
THZ-P1-2 = compound: CN(C)C/C=C/C(=O)NC1=CC=C(C=C1)C(=O)NC2=CC=CC(=C2)NC3=NC=NC(=C3)C4=CNC5=CC=CC=C54 [THZ-P1-2]
BSJ-01-175 = compound: CN(C)C/C=C/C(=O)Nc1ccc(O[C@@H]2CCC[C@@H](Nc3ncc(Cl)c(-c4c[nH]c5ccccc45)n3)C2)cc1 [BSJ-01-175]
Saracatinib/AZD0530 = compound: CN1CCN(CCOc2cc(OC3CCOCC3)c3c(Nc4c(Cl)ccc5c4OCO5)ncnc3c2)CC1 [Saracatinib/AZD0530]
Ceritinib/LDK378 = compound: Cc1cc(Nc2ncc(Cl)c(Nc3ccccc3S(=O)(=O)C(C)C)n2)c(OC(C)C)cc1C1CCNCC1 [Ceritinib/LDK378]
YKL-5-124 = compound: C=CC(=O)Nc1ccc(C(=O)Nc2[nH]nc3c2CN(C(=O)N[C@H](CN(C)C)c2ccccc2)C3(C)C)cc1 [YKL-5-124]; assay: increase in dead-cell fraction, 72 h; higher = more death;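 note: breast cancer cell lines in 384-well plates, stained with Hoechst plus LIVE/DEAD far red dye and imaged, cells above an LDR intensity threshold counted dead, Hoechst-negative corpses included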
BSJ-03-123 = compound: CC(=O)c1c(C)c2cnc(Nc3ccc(N4CCN(CCOCCOCCOCCNC(=O)COc5cccc6c5C(=O)N(C5CCC(=O)NC5=O)C6=O)CC4)cn3)nc2n(C2CCCC2)c1=O [BSJ-03-123]; assay: as above
[2] = compound: CC(=O)c1c(C)c2cnc(Nc3ccc(N4CCNCC4)cn3)nc2n(C2CCCC2)c1=O; assay: as above
[3] = compound: CCN1CCN(Cc2ccc(Nc3ncc(F)c(-c4cc(F)c5nc(C)n(C(C)C)c5c4)n3)nc2)CC1; assay: as above
Neratinib/HKI272 = compound: CCOc1cc2ncc(C#N)c(Nc3ccc(OCc4ccccn4)c(Cl)c3)c2cc1NC(=O)/C=C/CN(C)C [Neratinib/HKI272]; assay: as above
[4] = compound: CCc1cnn2c(NCc3ccc[n+]([O-])c3)cc(N3CCCC[C@H]3CCO)nc12; assay: as above
LEE011/Ribociclib = compound: CN(C)C(=O)c1cc2cnc(Nc3ccc(N4CCNCC4)cn3)nc2n1C1CCCC1 [LEE011/Ribociclib]; assay: as above
THZ531 = compound: CN(C)C/C=C/C(=O)Nc1ccc(C(=O)N2CCC[C@@H](Nc3ncc(Cl)c(-c4c[nH]c5ccccc45)n3)C2)cc1 [THZ531]; assay: as above
THZ1 = compound: CN(C)C/C=C/C(=O)Nc1ccc(C(=O)Nc2cccc(Nc3ncc(Cl)c(-c4c[nH]c5ccccc45)n3)c2)cc1 [THZ1]; assay: as above
Flavopiridol = compound: CN1CC[C@H](c2c(O)cc(O)c3c(=O)cc(-c4ccccc4Cl)oc23)[C@H](O)C1 [Flavopiridol]; assay: as above
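Throughout, for GR50, 72 h: breast cancer and non-malignant breast epithelial cell lines, Deep Dye Drop or Dye Drop imaging, nine half-log doses, GR normalized to time-zero plates and DMSO-only controls.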

## MDAMB175VII
[1]
  GR50, 72 h: 0.00153 µM
Luminespib/NVP-AUY922
  GR50, 72 h: 0.00398 µM
THZ-P1-2
  GR50, 72 h: 3.1 µM
BSJ-01-175
  GR50, 72 h: 0.00586 µM
Saracatinib/AZD0530
  GR50, 72 h: 0.0646 µM
Ceritinib/LDK378
  GR50, 72 h: 2.56 µM
YKL-5-124; 0.001 µM
  increase in dead-cell fraction: 0.0167
YKL-5-124; 0.003162 µM
  increase in dead-cell fraction: 0.0032
YKL-5-124; 0.01 µM
  increase in dead-cell fraction: 0.0173
YKL-5-124; 0.03162 µM
  increase in dead-cell fraction: 0.0139
YKL-5-124; 0.1 µM
  increase in dead-cell fraction: 0.0095
YKL-5-124; 0.3162 µM
  increase in dead-cell fraction: 0.0149
YKL-5-124; 1 µM
  increase in dead-cell fraction: 0.0069
YKL-5-124; 3.162 µM
  increase in dead-cell fraction: 0.0133
YKL-5-124; 10 µM
  increase in dead-cell fraction: 0.285
BSJ-03-123; 0.001 µM
  increase in dead-cell fraction: 0.0049
BSJ-03-123; 0.003162 µM
  increase in dead-cell fraction: 0.0003
BSJ-03-123; 0.01 µM
  increase in dead-cell fraction: 0.0001
BSJ-03-123; 0.03162 µM
  increase in dead-cell fraction: 0.0082
BSJ-03-123; 0.1 µM
  increase in dead-cell fraction: 0.0009
BSJ-03-123; 0.3162 µM
  increase in dead-cell fraction: 0.0035
BSJ-03-123; 1 µM
  increase in dead-cell fraction: 0.0093
BSJ-03-123; 3.162 µM
  increase in dead-cell fraction: 0.009
BSJ-03-123; 10 µM
  increase in dead-cell fraction: 0.0139
[2]; 0.0003162 µM
  increase in dead-cell fraction: 0.0035
[2]; 0.001 µM
  increase in dead-cell fraction: 0.0034
[2]; 0.003162 µM
  increase in dead-cell fraction: -0.0018
[2]; 0.01 µM
  increase in dead-cell fraction: 0.0077
[2]; 0.03162 µM
  increase in dead-cell fraction: 0.0116
[2]; 0.1 µM
  increase in dead-cell fraction: 0.0214
[2]; 0.3162 µM
  increase in dead-cell fraction: 0.0115
[2]; 1 µM
  increase in dead-cell fraction: 0.0097
[2]; 3.162 µM
  increase in dead-cell fraction: 0.0212
[3]; 0.001 µM
  increase in dead-cell fraction: -0.0013
[3]; 0.003162 µM
  increase in dead-cell fraction: -0.0015
[3]; 0.01 µM
  increase in dead-cell fraction: 0.0094
[3]; 0.03162 µM
  increase in dead-cell fraction: 0.0188
[3]; 0.1 µM
  increase in dead-cell fraction: 0.0085
[3]; 0.3162 µM
  increase in dead-cell fraction: 0.013
[3]; 1 µM
  increase in dead-cell fraction: 0.0044
[3]; 3.162 µM
  increase in dead-cell fraction: 0.0131
[3]; 10 µM
  increase in dead-cell fraction: 0.0317
Neratinib/HKI272; 0.0003162 µM
  increase in dead-cell fraction: -0.0063
Neratinib/HKI272; 0.001 µM
  increase in dead-cell fraction: -0.0069
Neratinib/HKI272; 0.003162 µM
  increase in dead-cell fraction: 0.0132
Neratinib/HKI272; 0.01 µM
  increase in dead-cell fraction: 0.0578
Neratinib/HKI272; 0.03162 µM
  increase in dead-cell fraction: 0.214
Neratinib/HKI272; 0.1 µM
  increase in dead-cell fraction: 0.276
Neratinib/HKI272; 0.3162 µM
  increase in dead-cell fraction: 0.406
Neratinib/HKI272; 1 µM
  increase in dead-cell fraction: 0.44
Neratinib/HKI272; 3.162 µM
  increase in dead-cell fraction: 0.49
[4]; 0.0001 µM
  increase in dead-cell fraction: -0.004
[4]; 0.0003162 µM
  increase in dead-cell fraction: -0.0015
[4]; 0.001 µM
  increase in dead-cell fraction: -0.0018
[4]; 0.003162 µM
  increase in dead-cell fraction: -0.0039
[4]; 0.01 µM
  increase in dead-cell fraction: 0.001
[4]; 0.03162 µM
  increase in dead-cell fraction: 0.116
[4]; 0.1 µM
  increase in dead-cell fraction: 0.0618
[4]; 0.3162 µM
  increase in dead-cell fraction: 0.0494
[4]; 1 µM
  increase in dead-cell fraction: 0.0562
LEE011/Ribociclib; 0.001 µM
  increase in dead-cell fraction: 0.0066
LEE011/Ribociclib; 0.003162 µM
  increase in dead-cell fraction: 0.0124
LEE011/Ribociclib; 0.01 µM
  increase in dead-cell fraction: 0.0047
LEE011/Ribociclib; 0.03162 µM
  increase in dead-cell fraction: 0.0118
LEE011/Ribociclib; 0.1 µM
  increase in dead-cell fraction: 0.0182
LEE011/Ribociclib; 0.3162 µM
  increase in dead-cell fraction: 0.0102
LEE011/Ribociclib; 1 µM
  increase in dead-cell fraction: 0.0154
LEE011/Ribociclib; 3.162 µM
  increase in dead-cell fraction: 0.0181
LEE011/Ribociclib; 10 µM
  increase in dead-cell fraction: 0.0148
THZ531; 0.0001 µM
  increase in dead-cell fraction: 0.0053
THZ531; 0.0003162 µM
  increase in dead-cell fraction: 0.0019
THZ531; 0.001 µM
  increase in dead-cell fraction: 0.0075
THZ531; 0.003162 µM
  increase in dead-cell fraction: 0.0041
THZ531; 0.01 µM
  increase in dead-cell fraction: 0.0043
THZ531; 0.03162 µM
  increase in dead-cell fraction: 0.0033
THZ531; 0.1 µM
  increase in dead-cell fraction: 0.105
THZ531; 0.3162 µM
  increase in dead-cell fraction: 0.231
THZ531; 1 µM
  increase in dead-cell fraction: 0.0668
THZ1; 0.0001 µM
  increase in dead-cell fraction: 0.0012
THZ1; 0.0003162 µM
  increase in dead-cell fraction: -0.0011
THZ1; 0.001 µM
  increase in dead-cell fraction: -0.0032
THZ1; 0.003162 µM
  increase in dead-cell fraction: -0.0005
THZ1; 0.01 µM
  increase in dead-cell fraction: 0.0034
THZ1; 0.03162 µM
  increase in dead-cell fraction: 0.0153
THZ1; 0.1 µM
  increase in dead-cell fraction: 0.0349
THZ1; 0.3162 µM
  increase in dead-cell fraction: 0.0573
THZ1; 1 µM
  increase in dead-cell fraction: 0.0912
Flavopiridol; 0.0001 µM
  increase in dead-cell fraction: -0.0018
Flavopiridol; 0.0003162 µM
  increase in dead-cell fraction: -0.0019
Flavopiridol; 0.001 µM
  increase in dead-cell fraction: 0.0003
Flavopiridol; 0.003162 µM
  increase in dead-cell fraction: 0.0018
Flavopiridol; 0.01 µM
  increase in dead-cell fraction: 0.0067
Flavopiridol; 0.03162 µM
  increase in dead-cell fraction: -0.0026
Flavopiridol; 0.1 µM
  increase in dead-cell fraction: 0.0081
Flavopiridol; 0.3162 µM
  increase in dead-cell fraction: 0.0294
Flavopiridol; 1 µM
  increase in dead-cell fraction: 0.0685

From the supplement of paper PMC9663587
